The source of these data is ChEMBL document CHEMBL5154925, “Design and Optimization of Thienopyrimidine Derivatives as Potent and Selective PI3Kδ Inhibitors for the Treatment of B-Cell Malignancies” (J Med Chem, 2022).

As usually defined, the IC50 is the concentration at which inhibition is half-maximal. What is called solubility is how much of the substance goes into solution per volume. A higher solubility goes with a readily soluble substance. For orientation: half-life means how long it takes for the measured level to halve.

Converted amounts (≈) assume the structure as drawn.

Data set [1] addresses Phosphatidylinositol 4,5-bisphosphate 3-kinase catalytic subunit alpha isoform (Homo sapiens, UniProt P42336). Description: Inhibition of PI3Kalpha (unknown origin) using PIP2 as substrate measured after 1 hr in presence of ATP by ADP-glo luminescence assay.
Data set [2] concerns the target T1, Phosphatidylinositol 4,5-bisphosphate 3-kinase catalytic subunit delta isoform (Homo sapiens, UniProt O00329).
T1 sequence (O00329 whole entry): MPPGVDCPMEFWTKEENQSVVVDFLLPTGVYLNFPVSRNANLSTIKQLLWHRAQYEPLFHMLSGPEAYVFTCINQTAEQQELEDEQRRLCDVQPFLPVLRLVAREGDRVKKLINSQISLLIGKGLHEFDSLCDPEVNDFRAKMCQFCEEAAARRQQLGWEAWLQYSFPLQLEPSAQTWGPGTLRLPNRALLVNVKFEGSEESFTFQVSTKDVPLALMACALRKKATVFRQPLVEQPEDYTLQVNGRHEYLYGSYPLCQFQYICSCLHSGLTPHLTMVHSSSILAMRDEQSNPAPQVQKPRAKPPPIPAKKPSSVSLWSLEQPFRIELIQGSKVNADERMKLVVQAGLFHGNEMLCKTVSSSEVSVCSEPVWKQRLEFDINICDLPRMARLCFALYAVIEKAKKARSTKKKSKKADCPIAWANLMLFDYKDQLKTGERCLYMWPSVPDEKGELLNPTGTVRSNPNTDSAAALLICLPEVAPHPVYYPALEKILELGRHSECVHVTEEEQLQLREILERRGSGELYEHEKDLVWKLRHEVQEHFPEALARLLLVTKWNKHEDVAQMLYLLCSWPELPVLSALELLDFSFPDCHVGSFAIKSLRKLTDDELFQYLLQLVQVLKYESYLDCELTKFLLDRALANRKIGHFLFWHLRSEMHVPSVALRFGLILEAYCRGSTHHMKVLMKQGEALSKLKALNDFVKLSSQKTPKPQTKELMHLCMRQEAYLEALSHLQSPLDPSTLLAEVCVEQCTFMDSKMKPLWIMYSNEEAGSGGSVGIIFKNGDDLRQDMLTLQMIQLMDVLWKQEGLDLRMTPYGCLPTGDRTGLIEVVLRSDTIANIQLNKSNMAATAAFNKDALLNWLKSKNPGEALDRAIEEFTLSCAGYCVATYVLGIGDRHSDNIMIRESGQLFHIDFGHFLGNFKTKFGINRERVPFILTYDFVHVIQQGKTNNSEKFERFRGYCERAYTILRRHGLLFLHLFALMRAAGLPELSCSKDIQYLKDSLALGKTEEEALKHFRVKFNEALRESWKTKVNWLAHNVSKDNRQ
Kind of data set: Inhibition of PI3Kdelta (unknown origin) using PIP2 as substrate measured after 1 hr in presence of ATP by ADP-glo luminescence assay. Background: In ADP-Glo the light output rises with the ADP produced.

Data set [3] is described as follows: Microsomal stability in mouse liver microsomes assessed as intrinsic clearance. To be noted: read-out: CLH. It counts as ADME, Microsome. In general terms: Liver microsomes are a subcellular fraction often used to study metabolism.
Data set [4] deals with T2, Phosphatidylinositol 4,5-bisphosphate 3-kinase catalytic subunit beta isoform (Homo sapiens, UniProt P42338). Kind of data set: Inhibition of PI3Kbeta (unknown origin) using PIP2 as substrate measured after 1 hr in presence of ATP by ADP-glo luminescence assay.
For data set [5], the target named is Phosphatidylinositol 4,5-bisphosphate 3-kinase catalytic subunit gamma isoform (Homo sapiens, UniProt P48736). Kind of data set: Inhibition of PI3Kgamma (unknown origin) using PIP2 as substrate measured after 1 hr in presence of ATP by ADP-glo luminescence assay.
Data set [6] deals with Serine/threonine-protein kinase mTOR (Homo sapiens, UniProt P42345). Kind of data set: Inhibition of mTOR (unknown origin).
The target of data set [7] is T1, Phosphatidylinositol 4,5-bisphosphate 3-kinase catalytic subunit delta isoform. Kind of data set: Inhibition of PI3Kdelta in IgM stimulated human Raji cells incubated for 10 mins by AlphaLISA assay. Format: cell-based. In general terms: In Alpha technology, singlet oxygen from a donor bead excites a nearby acceptor bead.
In data set [8] the target is Phosphatidylinositol 4,5-bisphosphate 3-kinase catalytic subunit alpha isoform (Mus musculus, UniProt P42337). Description: Inhibition of PI3Kalpha in IGF-1 stimulated mouse C2C12 cells incubated for 10 mins by AlphaLISA assay. It counts as cell-based.
Data set [9] addresses T2, Phosphatidylinositol 4,5-bisphosphate 3-kinase catalytic subunit beta isoform. Kind of data set: Inhibition of PI3Kbeta in LPA stimulated human PC-3 cells incubated for 10 mins by AlphaLISA assay. Format: cell-based.
The target of data set [10] is Phosphatidylinositol 4,5-bisphosphate 3-kinase catalytic subunit gamma isoform (Mus musculus, UniProt Q9JHG7). Kind of data set: Inhibition of PI3Kgamma in C5a stimulated mouse RAW264.7 cells incubated for 10 mins by AlphaLisa assay. Format: cell-based.
The nature of data set [11]: Solubility of the compound in PBS. Format: physicochemical.
Data set [12] in a line: Plasma protein binding in mouse. It counts as ADME, cell-free. To be noted: read-out: PPB (converted).
A short description of data set [13]: Microsomal stability in mouse liver microsomes assessed as half life. It counts as ADME, Microsome.
The nature of data set [14]: Solubility of the compound in FaSSIF. It counts as physicochemical.

T2 sequence (P42338 whole entry, canonical isoform): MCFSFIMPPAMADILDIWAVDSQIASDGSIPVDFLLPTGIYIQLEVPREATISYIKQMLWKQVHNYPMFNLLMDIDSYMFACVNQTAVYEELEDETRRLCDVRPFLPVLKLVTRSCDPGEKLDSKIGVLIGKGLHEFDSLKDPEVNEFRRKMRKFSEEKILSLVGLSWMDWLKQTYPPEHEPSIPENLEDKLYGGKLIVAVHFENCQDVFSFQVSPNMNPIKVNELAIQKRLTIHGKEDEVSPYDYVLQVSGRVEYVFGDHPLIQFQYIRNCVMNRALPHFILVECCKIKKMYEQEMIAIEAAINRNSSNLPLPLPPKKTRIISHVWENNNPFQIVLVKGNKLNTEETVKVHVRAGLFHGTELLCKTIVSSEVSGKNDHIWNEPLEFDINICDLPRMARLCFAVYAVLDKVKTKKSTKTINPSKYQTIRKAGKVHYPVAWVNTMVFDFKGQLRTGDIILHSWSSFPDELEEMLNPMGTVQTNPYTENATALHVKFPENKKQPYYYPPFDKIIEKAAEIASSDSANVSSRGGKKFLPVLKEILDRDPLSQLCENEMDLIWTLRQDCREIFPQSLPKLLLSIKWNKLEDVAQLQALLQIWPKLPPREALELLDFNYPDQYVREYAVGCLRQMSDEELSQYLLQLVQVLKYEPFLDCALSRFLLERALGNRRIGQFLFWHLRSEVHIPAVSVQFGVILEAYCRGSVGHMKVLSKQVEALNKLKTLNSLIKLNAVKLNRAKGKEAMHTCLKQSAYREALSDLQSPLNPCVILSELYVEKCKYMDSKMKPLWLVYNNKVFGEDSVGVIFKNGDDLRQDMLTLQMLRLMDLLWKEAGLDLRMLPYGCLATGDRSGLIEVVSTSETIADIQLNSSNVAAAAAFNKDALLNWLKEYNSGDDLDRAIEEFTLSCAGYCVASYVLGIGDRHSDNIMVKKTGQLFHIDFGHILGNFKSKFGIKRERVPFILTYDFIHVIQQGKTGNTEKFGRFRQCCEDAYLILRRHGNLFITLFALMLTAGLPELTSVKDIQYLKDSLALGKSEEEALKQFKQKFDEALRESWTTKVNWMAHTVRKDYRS
Sequence of Phosphatidylinositol 4,5-bisphosphate 3-kinase catalytic subunit alpha isoform (Homo sapiens, UniProt P42336) (P42336 whole entry, canonical isoform): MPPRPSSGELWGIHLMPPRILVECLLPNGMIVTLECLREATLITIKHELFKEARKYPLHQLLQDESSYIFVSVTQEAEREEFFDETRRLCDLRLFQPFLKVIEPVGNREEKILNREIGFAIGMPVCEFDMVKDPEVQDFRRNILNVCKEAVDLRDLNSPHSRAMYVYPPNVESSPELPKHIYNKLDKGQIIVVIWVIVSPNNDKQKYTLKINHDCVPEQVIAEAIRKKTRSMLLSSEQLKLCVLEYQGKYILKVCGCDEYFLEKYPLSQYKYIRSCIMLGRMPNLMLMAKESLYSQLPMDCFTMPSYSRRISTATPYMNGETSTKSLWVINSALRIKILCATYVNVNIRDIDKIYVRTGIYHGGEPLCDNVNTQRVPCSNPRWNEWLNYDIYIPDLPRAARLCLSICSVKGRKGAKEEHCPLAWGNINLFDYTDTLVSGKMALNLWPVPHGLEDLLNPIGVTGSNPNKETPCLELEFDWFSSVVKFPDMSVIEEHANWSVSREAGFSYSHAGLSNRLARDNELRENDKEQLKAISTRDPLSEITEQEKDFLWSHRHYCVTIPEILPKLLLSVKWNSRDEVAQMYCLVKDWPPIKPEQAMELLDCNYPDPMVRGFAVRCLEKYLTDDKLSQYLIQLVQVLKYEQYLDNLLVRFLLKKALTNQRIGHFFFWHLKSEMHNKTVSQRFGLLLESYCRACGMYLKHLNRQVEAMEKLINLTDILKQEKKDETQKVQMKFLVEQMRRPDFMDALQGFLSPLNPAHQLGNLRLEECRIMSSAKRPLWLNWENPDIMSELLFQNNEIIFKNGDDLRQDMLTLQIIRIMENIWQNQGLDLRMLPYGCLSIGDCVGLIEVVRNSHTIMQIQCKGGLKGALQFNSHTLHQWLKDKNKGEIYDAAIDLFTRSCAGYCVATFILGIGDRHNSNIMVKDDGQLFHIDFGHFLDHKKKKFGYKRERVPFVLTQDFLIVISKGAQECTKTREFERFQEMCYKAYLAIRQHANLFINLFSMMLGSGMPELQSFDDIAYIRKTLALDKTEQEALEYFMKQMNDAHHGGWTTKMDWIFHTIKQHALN
Sequence of Phosphatidylinositol 4,5-bisphosphate 3-kinase catalytic subunit gamma isoform (Mus musculus, UniProt Q9JHG7) (Q9JHG7 whole entry, canonical isoform): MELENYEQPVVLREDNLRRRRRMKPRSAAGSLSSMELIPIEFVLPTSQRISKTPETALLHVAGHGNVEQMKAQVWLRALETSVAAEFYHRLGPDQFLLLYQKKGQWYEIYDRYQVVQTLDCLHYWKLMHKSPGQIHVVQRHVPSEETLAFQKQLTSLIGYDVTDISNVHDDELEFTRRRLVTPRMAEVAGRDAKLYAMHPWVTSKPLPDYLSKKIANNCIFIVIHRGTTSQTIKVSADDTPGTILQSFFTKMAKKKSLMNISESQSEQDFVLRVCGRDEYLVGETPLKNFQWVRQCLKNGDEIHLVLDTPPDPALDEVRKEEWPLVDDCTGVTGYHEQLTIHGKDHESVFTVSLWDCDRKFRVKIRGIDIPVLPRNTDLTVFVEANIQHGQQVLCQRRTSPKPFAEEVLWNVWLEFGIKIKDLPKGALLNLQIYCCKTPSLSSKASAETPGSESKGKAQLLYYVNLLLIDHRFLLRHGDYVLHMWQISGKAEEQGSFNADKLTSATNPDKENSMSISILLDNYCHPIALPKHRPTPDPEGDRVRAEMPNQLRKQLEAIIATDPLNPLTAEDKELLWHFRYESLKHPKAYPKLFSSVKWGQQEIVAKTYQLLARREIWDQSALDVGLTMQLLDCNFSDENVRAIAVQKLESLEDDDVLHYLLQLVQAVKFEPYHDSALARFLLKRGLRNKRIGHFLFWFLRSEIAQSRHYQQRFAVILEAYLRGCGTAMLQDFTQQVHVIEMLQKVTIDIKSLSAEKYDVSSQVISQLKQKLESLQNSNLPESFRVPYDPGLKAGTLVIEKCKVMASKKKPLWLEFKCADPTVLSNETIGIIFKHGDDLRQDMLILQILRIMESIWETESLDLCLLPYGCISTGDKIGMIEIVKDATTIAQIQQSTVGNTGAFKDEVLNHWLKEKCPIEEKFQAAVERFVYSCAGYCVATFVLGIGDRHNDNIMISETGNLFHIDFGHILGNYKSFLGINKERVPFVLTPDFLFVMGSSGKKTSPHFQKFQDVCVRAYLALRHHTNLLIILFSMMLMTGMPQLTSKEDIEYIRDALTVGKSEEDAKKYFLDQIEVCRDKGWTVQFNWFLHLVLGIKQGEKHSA
Sequence of Phosphatidylinositol 4,5-bisphosphate 3-kinase catalytic subunit gamma isoform (Homo sapiens, UniProt P48736) (P48736 whole entry, canonical isoform): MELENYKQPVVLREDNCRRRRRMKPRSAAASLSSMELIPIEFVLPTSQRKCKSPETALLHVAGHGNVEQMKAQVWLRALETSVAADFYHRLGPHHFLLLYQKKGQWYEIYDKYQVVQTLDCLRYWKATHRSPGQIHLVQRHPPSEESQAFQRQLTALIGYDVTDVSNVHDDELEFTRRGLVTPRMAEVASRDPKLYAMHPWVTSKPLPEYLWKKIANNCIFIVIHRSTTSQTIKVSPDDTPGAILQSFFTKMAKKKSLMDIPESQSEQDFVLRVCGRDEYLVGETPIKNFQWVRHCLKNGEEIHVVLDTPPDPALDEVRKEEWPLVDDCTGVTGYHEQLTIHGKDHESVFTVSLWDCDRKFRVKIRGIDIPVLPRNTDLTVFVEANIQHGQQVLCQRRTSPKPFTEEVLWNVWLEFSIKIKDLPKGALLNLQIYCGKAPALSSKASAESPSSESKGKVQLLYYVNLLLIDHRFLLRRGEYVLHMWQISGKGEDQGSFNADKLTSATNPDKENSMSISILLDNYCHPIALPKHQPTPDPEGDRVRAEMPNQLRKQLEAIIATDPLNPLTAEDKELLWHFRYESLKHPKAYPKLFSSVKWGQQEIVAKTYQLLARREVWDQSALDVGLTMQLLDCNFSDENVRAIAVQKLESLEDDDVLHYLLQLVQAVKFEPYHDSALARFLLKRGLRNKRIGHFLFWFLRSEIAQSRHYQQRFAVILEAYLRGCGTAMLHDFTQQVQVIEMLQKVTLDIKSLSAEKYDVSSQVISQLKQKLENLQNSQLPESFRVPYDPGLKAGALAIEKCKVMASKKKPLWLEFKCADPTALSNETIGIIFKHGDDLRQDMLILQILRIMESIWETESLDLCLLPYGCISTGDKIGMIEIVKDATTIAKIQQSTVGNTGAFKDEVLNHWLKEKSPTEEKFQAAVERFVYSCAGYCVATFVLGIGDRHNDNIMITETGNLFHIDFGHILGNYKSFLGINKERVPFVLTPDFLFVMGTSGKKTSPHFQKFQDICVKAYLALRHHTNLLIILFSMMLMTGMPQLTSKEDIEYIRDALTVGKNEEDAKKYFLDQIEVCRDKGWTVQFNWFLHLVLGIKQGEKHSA

`CCC(=O)N1CC[C@H](Nc2ncnc3sc(-c4cnc(OC)c(C)c4)cc23)C1`: the IC50 is 6290 nM in data set [1] and 45 nM in [2].

Turning to `CCC(=O)N1CC[C@H](Nc2ncnc3sc(-c4ccc(F)c(C#N)c4)cc23)C1`, the IC50 in [1] was greater than 10000 nM; in [2], 1010 nM.

In the case of `COc1cc(-c2cc3c(N[C@H]4CCN(C(=O)C(C)C)C4)ncnc3s2)cnc1OC`, the IC50 came out at 241 nM in [1] and 55 nM in [2].

With `CCC(=O)N1CC[C@H](Nc2ncnc3sc(-c4cncc(S(C)(=O)=O)c4)cc23)C1`, the IC50 in [1] amounted to 1210 nM; in [2] it was 38 nM.

Regarding `COc1cc(-c2cc3c(N[C@H]4CCN(C(=O)c5ccccc5)C4)ncnc3s2)cnc1OC`, the IC50 in data set [1] worked out at 395 nM; in [2], 26 nM.

Turning to `COc1cc(-c2cc3c(N[C@H]4CCN(C(=O)C5CCCC5)C4)ncnc3s2)cnc1OC`, the IC50 was 483 nM in data set [1] and 8.5 nM in data set [2].

Regarding `CCC(=O)N1CC[C@H](Oc2ncnc3sc(-c4cnc(OC)c(C(F)(F)F)c4)cc23)C1`, the results for the IC50 in data set [1] and in data set [2] were greater than 10000 nM and 269 nM, respectively.

In the case of `COc1cc(-c2cc3c(N[C@H]4CCN(C(=O)C5CC5)C4)ncnc3s2)cnc1OC`, the results for the IC50 in [1] and in [2] were 154 nM and 4.7 nM, respectively.

`CCC(=O)N1CC[C@H](Nc2ncnc3sc(-c4ccc(OC)c(F)c4)cc23)C1`: the IC50 in [1] was found to be 5640 nM; in [2] it was 182 nM.

Regarding `CCC(=O)N1CC[C@H](Nc2ncnc3sc(-c4cnc(OC)c(C#N)c4)cc23)C1`, the IC50 worked out at 4030 nM in [1] and 60 nM in [2].

Consider `COc1cc(-c2cc3c(N[C@H]4CCN(C(=O)C5CCC5)C4)ncnc3s2)cnc1OC`, for which the CLint scaled in data set [3] worked out at 342 mL/min/kg. Also, the IC50 in data set [1] is 172 nM; in [2], 2.2 nM; in data set [4], 1370 nM; in [5] it was 1990 nM; in data set [6], greater than 10000 nM; in data set [7], 33.7 nM. The IC50 in [8] turned out to be 20800 nM; in data set [9], 4210 nM; in data set [10], 4780 nM. In addition, the solubility came out at 5.67 µM (≈ 2.49 µg/mL) in data set [11] and 39.7 µM (≈ 17.4 µg/mL) in data set [14]. Besides, the fraction unbound in data set [12] was 0.01. Also, the half-life in data set [13] worked out at 15.9 min.

In the case of `COc1cc(-c2cc3c(N[C@H]4CCN(C(=O)C5CCCCC5)C4)ncnc3s2)cnc1OC`, the results for the IC50 in data set [1] and in data set [2] were 718 nM and 30 nM, respectively.

In the case of `CCC(=O)N1CC[C@H](Nc2ncnc3sc(-c4ccc(OC)c(OC)c4)cc23)C1`, the IC50 in data set [1] stood at 589 nM; in data set [2] it was 21 nM.

Turning to `CCC(=O)N1CC[C@H](Oc2ncnc3sc(-c4cnc(OC)c(OC)c4)cc23)C1`, the IC50 came out at 428 nM in data set [1] and 11 nM in data set [2].

As for `CCC(=O)N1CC[C@H](Oc2ncnc3sc(-c4cnc(OC)c(C#N)c4)cc23)C1`, the values for the IC50 in data set [1] and in data set [2] were 7330 nM and 156 nM, respectively.

With `COc1cc(-c2cc3c(O[C@H]4CCN(C(=O)C(C)C)C4)ncnc3s2)cnc1OC`, the IC50 came out at 411 nM in data set [1] and 10 nM in [2].

Turning to `CCC(=O)N1CC[C@H](Nc2ncnc3sc(-c4cnc(OC)c(C(F)(F)F)c4)cc23)C1`, the IC50 in [1] turned out to be 2060 nM; in data set [2] it was 103 nM.

With `CCC(=O)N1CC[C@H](Nc2ncnc3sc(-c4cccc(S(C)(=O)=O)c4)cc23)C1`, the IC50 in [1] is 3070 nM; in data set [2], 128 nM.

For the compound `CCC(=O)N1CC[C@H](Oc2ncnc3sc(-c4cnc(OC)c(F)c4)cc23)C1`, the IC50 in data set [1] came out at 7860 nM; in data set [2] it was 97.5 nM.

Consider `CCC(=O)N1CC[C@H](Nc2ncnc3sc(-c4ccc(S(C)(=O)=O)cc4)cc23)C1`, for which the IC50 in [1] is greater than 10000 nM; in data set [2], 465 nM.

`CCC(=O)N1CC[C@H](Nc2ncnc3sc(-c4ccc(C#N)nc4)cc23)C1`: the IC50 in data set [1] is greater than 1000 nM; in [2], 458 nM.

As for `CCC(=O)N1CC[C@H](Nc2ncnc3sc(-c4cnc(OC)nc4)cc23)C1`, the IC50 in data set [1] turned out to be 2580 nM; in data set [2], 37 nM.

For the compound `COc1cc(-c2cc3c(N[C@H]4CCN(C(=O)C(C)(C)C)C4)ncnc3s2)cnc1OC`, the IC50 in data set [1] was 793 nM; in [2] it was 53 nM.

For `COc1cc(-c2cc3c(O[C@H]4CCN(C(=O)C5CCC5)C4)ncnc3s2)cnc1OC`, in data set [3], the CLint scaled came to 1070 mL/min/kg. For the same compound, the IC50 was 392 nM in data set [1]; 3.3 nM in data set [2]; 1960 nM in data set [4]; 2860 nM in data set [5]; greater than 10000 nM in data set [6]; 75.7 nM in data set [7]. The IC50 in data set [8] worked out at 28300 nM; in data set [9], 6200 nM; in [10] it was 5990 nM. Also, the solubility in data set [11] is 1.41 µM (≈ 0.621 µg/mL); in [14], 5.89 µM (≈ 2.59 µg/mL). In data set [12], the fraction unbound is 0.011. Moreover, in [13], the half-life is 5.09 min.

For `CCC(=O)N1CC[C@H](Nc2ncnc3sc(-c4cnc(OC)c(F)c4)cc23)C1`, the values for the IC50 in data set [1] and in data set [2] were 3410 nM and 54 nM, respectively.

In the case of `COc1cc(-c2cc3c(O[C@H]4CCN(C(=O)C5CC5)C4)ncnc3s2)cnc1OC`, the IC50 in [1] was determined as 322 nM; in data set [2], 10 nM.

As to `CCCC(=O)N1CC[C@H](Nc2ncnc3sc(-c4cnc(OC)c(OC)c4)cc23)C1`, the values for the IC50 in [1] and in [2] were 363 nM and 12 nM, respectively.

For the compound `CCC(=O)N1CC[C@H](Nc2ncnc3sc(-c4ccc(OC)nc4)cc23)C1`, the values for the IC50 in data set [1] and in [2] were 2900 nM and 136 nM, respectively.
